Patent US20080069785A1, “PEST-CONTROL COMPOSITIONS, AND METHODS AND PRODUCTS UTILIZING SAME” (priority 2004, published 2008)

Tested on: cockroaches (Blattella germanica)
Assay: Weeklong surface area toxicity test on cockroaches (Example 19)
Assay type: in vivo
Description: In order determine the toxicity of the formulation to the insect after application to a surface over a period of time, the following test was performed. […] Cockroaches were placed in the cups on the first day following the application of the formulations, on the third day following the application of the formulations, and on the sixth day following the application of the formulations in order to monitor the toxicity of the formulations after a period of time had elapsed. The mortality of the cockroaches was then recorded at the time intervals noted. The five cockroaches placed in each cup were one week old cockroaches (Blattella germanica) which had been reared at twenty seven degrees centigrade, at sixty five percent relative humidity, and on a twelve hour light to dark photoperiod. Each of the cups had Fluon®AD1 treated sides to prevent the escape of the cockroaches.

CCCCCCCCCC(C)=O [Undecanone, 2-Undecanone]
cockroaches alive (of five per cup) (3-4 days treatment, 0.09 μL/cm^2 (5 μL), 23 h): 5 | cockroaches alive (of five per cup) (3-4 days treatment, 0.09 μL/cm^2 (5 μL), 24 h): 5 | cockroaches alive (of five per cup) (3-4 days treatment, 0.09 μL/cm^2 (5 μL), 27 h): 5 | cockroaches alive (of five per cup) (3-4 days treatment, 0.09 μL/cm^2 (5 μL), 30 h): 5 | cockroaches alive (of five per cup) (3-4 days treatment, 0.19 μL/cm^2 (10 μL), 5 min): 5 | cockroaches alive (of five per cup) (3-4 days treatment, 0.19 μL/cm^2 (10 μL), 10 min): 5 | cockroaches alive (of five per cup) (3-4 days treatment, 0.19 μL/cm^2 (10 μL), 15 min): 5 | cockroaches alive (of five per cup) (3-4 days treatment, 0.19 μL/cm^2 (10 μL), 30 min): 5 | cockroaches alive (of five per cup) (3-4 days treatment, 0.19 μL/cm^2 (10 μL), 60 min): 5 | cockroaches alive (of five per cup) (3-4 days treatment, 0.19 μL/cm^2 (10 μL), 90 min): 5 | cockroaches alive (of five per cup) (3-4 days treatment, 0.19 μL/cm^2 (10 μL), 2 h): 5 | cockroaches alive (of five per cup) (3-4 days treatment, 0.19 μL/cm^2 (10 μL), 4 h): 5 | cockroaches alive (of five per cup) (3-4 days treatment, 0.19 μL/cm^2 (10 μL), 23 h): 5 | cockroaches alive (of five per cup) (3-4 days treatment, 0.19 μL/cm^2 (10 μL), 24 h): 5 | cockroaches alive (of five per cup) (3-4 days treatment, 0.19 μL/cm^2 (10 μL), 27 h): 5 | cockroaches alive (of five per cup) (3-4 days treatment, 0.19 μL/cm^2 (10 μL), 30 h): 5 | cockroaches alive (of five per cup) (3-4 days treatment, 0.95 μL/cm^2 (50 μL), 5 min): 5 | cockroaches alive (of five per cup) (3-4 days treatment, 0.95 μL/cm^2 (50 μL), 10 min): 5 | cockroaches alive (of five per cup) (3-4 days treatment, 0.95 μL/cm^2 (50 μL), 15 min): 5 | cockroaches alive (of five per cup) (3-4 days treatment, 0.95 μL/cm^2 (50 μL), 30 min): 5 | cockroaches alive (of five per cup) (3-4 days treatment, 0.95 μL/cm^2 (50 μL), 60 min): 5 | cockroaches alive (of five per cup) (3-4 days treatment, 0.95 μL/cm^2 (50 μL), 90 min): 5 | cockroaches alive (of five per cup) (3-4 days treatment, 0.95 μL/cm^2 (50 μL), 2 h): 3 | cockroaches alive (of five per cup) (3-4 days treatment, 0.95 μL/cm^2 (50 μL), 4 h): 2 | cockroaches alive (of five per cup) (3-4 days treatment, 0.95 μL/cm^2 (50 μL), 23 h): 1 | cockroaches alive (of five per cup) (3-4 days treatment, 0.95 μL/cm^2 (50 μL), 24 h): 1 | cockroaches alive (of five per cup) (3-4 days treatment, 0.95 μL/cm^2 (50 μL), 27 h): 0 | cockroaches alive (of five per cup) (3-4 days treatment, 0.95 μL/cm^2 (50 μL), 30 h): 0 | cockroaches alive (of five per cup) (6-7 days treatment, 0.02 μL/cm^2 (1 μL), 5 min): 5 | cockroaches alive (of five per cup) (6-7 days treatment, 0.02 μL/cm^2 (1 μL), 10 min): 5 | cockroaches alive (of five per cup) (6-7 days treatment, 0.02 μL/cm^2 (1 μL), 15 min): 5 | cockroaches alive (of five per cup) (6-7 days treatment, 0.02 μL/cm^2 (1 μL), 30 min): 5 | cockroaches alive (of five per cup) (6-7 days treatment, 0.02 μL/cm^2 (1 μL), 60 min): 5 | cockroaches alive (of five per cup) (6-7 days treatment, 0.02 μL/cm^2 (1 μL), 90 min): 5 | cockroaches alive (of five per cup) (6-7 days treatment, 0.02 μL/cm^2 (1 μL), 2 h): 5 | cockroaches alive (of five per cup) (6-7 days treatment, 0.02 μL/cm^2 (1 μL), 4 h): 5 | cockroaches alive (of five per cup) (6-7 days treatment, 0.02 μL/cm^2 (1 μL), 21.5 h): 5 | cockroaches alive (of five per cup) (6-7 days treatment, 0.02 μL/cm^2 (1 μL), 22 h): 5 | cockroaches alive (of five per cup) (6-7 days treatment, 0.02 μL/cm^2 (1 μL), 23 h): 5 | cockroaches alive (of five per cup) (6-7 days treatment, 0.02 μL/cm^2 (1 μL), 24 h): 5 | cockroaches alive (of five per cup) (6-7 days treatment, 0.02 μL/cm^2 (1 μL), 27 h): 5 | cockroaches alive (of five per cup) (6-7 days treatment, 0.02 μL/cm^2 (1 μL), 29 h): 5 | cockroaches alive (of five per cup) (6-7 days treatment, 0.02 μL/cm^2 (1 μL), 30 h): 5 | cockroaches alive (of five per cup) (6-7 days treatment, 0.02 μL/cm^2 (1 μL), 31 h): 5 | cockroaches alive (of five per cup) (6-7 days treatment, 0.09 μL/cm^2 (5 μL), 5 min): 5 | cockroaches alive (of five per cup) (6-7 days treatment, 0.09 μL/cm^2 (5 μL), 10 min): 5 | cockroaches alive (of five per cup) (6-7 days treatment, 0.09 μL/cm^2 (5 μL), 15 min): 5 | cockroaches alive (of five per cup) (6-7 days treatment, 0.09 μL/cm^2 (5 μL), 30 min): 5 | cockroaches alive (of five per cup) (6-7 days treatment, 0.09 μL/cm^2 (5 μL), 60 min): 5 | cockroaches alive (of five per cup) (6-7 days treatment, 0.09 μL/cm^2 (5 μL), 90 min): 5 | cockroaches alive (of five per cup) (6-7 days treatment, 0.09 μL/cm^2 (5 μL), 2 h): 5 | cockroaches alive (of five per cup) (6-7 days treatment, 0.09 μL/cm^2 (5 μL), 4 h): 5 | cockroaches alive (of five per cup) (6-7 days treatment, 0.09 μL/cm^2 (5 μL), 21.5 h): 5 | cockroaches alive (of five per cup) (6-7 days treatment, 0.09 μL/cm^2 (5 μL), 22 h): 5 | cockroaches alive (of five per cup) (6-7 days treatment, 0.09 μL/cm^2 (5 μL), 23 h): 5 | cockroaches alive (of five per cup) (6-7 days treatment, 0.09 μL/cm^2 (5 μL), 24 h): 5 | cockroaches alive (of five per cup) (6-7 days treatment, 0.09 μL/cm^2 (5 μL), 27 h): 5 | cockroaches alive (of five per cup) (6-7 days treatment, 0.09 μL/cm^2 (5 μL), 29 h): 5 | cockroaches alive (of five per cup) (6-7 days treatment, 0.09 μL/cm^2 (5 μL), 30 h): 5 | cockroaches alive (of five per cup) (6-7 days treatment, 0.09 μL/cm^2 (5 μL), 31 h): 5 | cockroaches alive (of five per cup) (6-7 days treatment, 0.19 μL/cm^2 (10 μL), 5 min): 5 | cockroaches alive (of five per cup) (6-7 days treatment, 0.19 μL/cm^2 (10 μL), 10 min): 5 | cockroaches alive (of five per cup) (6-7 days treatment, 0.19 μL/cm^2 (10 μL), 15 min): 5 | cockroaches alive (of five per cup) (6-7 days treatment, 0.19 μL/cm^2 (10 μL), 30 min): 5 | cockroaches alive (of five per cup) (6-7 days treatment, 0.19 μL/cm^2 (10 μL), 60 min): 5 | cockroaches alive (of five per cup) (6-7 days treatment, 0.19 μL/cm^2 (10 μL), 90 min): 5 | cockroaches alive (of five per cup) (6-7 days treatment, 0.19 μL/cm^2 (10 μL), 2 h): 5 | cockroaches alive (of five per cup) (6-7 days treatment, 0.19 μL/cm^2 (10 μL), 4 h): 5 | cockroaches alive (of five per cup) (6-7 days treatment, 0.19 μL/cm^2 (10 μL), 21.5 h): 5 | cockroaches alive (of five per cup) (6-7 days treatment, 0.19 μL/cm^2 (10 μL), 22 h): 5 | cockroaches alive (of five per cup) (6-7 days treatment, 0.19 μL/cm^2 (10 μL), 23 h): 5 | cockroaches alive (of five per cup) (6-7 days treatment, 0.19 μL/cm^2 (10 μL), 24 h): 5 | cockroaches alive (of five per cup) (6-7 days treatment, 0.19 μL/cm^2 (10 μL), 27 h): 5 | cockroaches alive (of five per cup) (6-7 days treatment, 0.19 μL/cm^2 (10 μL), 29 h): 5 | cockroaches alive (of five per cup) (6-7 days treatment, 0.19 μL/cm^2 (10 μL), 30 h): 5 | cockroaches alive (of five per cup) (6-7 days treatment, 0.19 μL/cm^2 (10 μL), 31 h): 5 | cockroaches alive (of five per cup) (6-7 days treatment, 0.95 μL/cm^2 (50 μL), 21.5 h): 2 | cockroaches alive (of five per cup) (6-7 days treatment, 0.95 μL/cm^2 (50 μL), 22 h): 2 | cockroaches alive (of five per cup) (6-7 days treatment, 0.95 μL/cm^2 (50 μL), 23 h): 2 | cockroaches alive (of five per cup) (6-7 days treatment, 0.95 μL/cm^2 (50 μL), 24 h): 2
